Results reported in patent US20230000869A1, “NOVEL ALK2 INHIBITORS AND METHODS FOR INHIBITING BMP SIGNALING” (The Brigham and Women's Hospital, Inc., priority 2017, published 2023).

Legend:
[1] = molecular target: T1, BMPR2 (Homo sapiens, UniProt Q13873); assay: LanthaScreen Eu kinase binding assay, BMP type II receptor BMPR2; settings: 10-point titration from 10 μM, 3-fold serial dilution, Life Technologies
T1 sequence (Q13873 27-1038): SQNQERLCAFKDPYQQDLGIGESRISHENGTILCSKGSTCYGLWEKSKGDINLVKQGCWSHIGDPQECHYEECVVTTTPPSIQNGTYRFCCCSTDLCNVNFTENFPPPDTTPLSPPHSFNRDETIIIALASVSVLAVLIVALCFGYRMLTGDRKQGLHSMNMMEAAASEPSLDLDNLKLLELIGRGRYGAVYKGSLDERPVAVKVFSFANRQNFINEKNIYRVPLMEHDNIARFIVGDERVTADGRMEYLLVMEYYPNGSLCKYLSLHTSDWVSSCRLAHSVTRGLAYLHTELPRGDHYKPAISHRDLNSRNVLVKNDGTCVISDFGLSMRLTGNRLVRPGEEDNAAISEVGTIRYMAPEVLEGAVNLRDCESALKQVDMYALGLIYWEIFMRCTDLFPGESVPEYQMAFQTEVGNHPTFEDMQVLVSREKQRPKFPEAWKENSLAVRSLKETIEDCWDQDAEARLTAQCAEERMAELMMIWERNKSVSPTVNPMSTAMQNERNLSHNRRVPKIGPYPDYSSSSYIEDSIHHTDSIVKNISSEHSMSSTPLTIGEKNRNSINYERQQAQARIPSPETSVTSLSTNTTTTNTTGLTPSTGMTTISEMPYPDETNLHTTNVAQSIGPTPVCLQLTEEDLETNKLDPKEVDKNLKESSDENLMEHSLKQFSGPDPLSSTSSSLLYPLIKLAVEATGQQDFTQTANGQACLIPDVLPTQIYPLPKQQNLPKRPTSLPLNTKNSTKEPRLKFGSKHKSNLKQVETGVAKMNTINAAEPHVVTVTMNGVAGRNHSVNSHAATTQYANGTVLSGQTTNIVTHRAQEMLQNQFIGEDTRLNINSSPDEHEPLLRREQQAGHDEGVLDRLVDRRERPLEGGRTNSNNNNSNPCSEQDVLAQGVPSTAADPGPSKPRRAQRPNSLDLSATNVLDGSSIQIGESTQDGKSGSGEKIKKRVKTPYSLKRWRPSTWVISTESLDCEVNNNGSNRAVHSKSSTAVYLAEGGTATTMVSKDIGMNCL
Experimental: Kinase Profiling BMP Type II Receptor Experimental Procedure (Life Technologies, 5225 Vernona Road, Madison, Wis. 53744)
The measurement of each compound's half maximal inhibitory concentration (IC50) for BMP type II receptors (ACVR2A, ACVR2B, BMPR2 and TGFbR2) was carried out at Life Technologies by using its 10-point titration (starting concentration: 10 μM with 3-fold serial dilution) LanthaScreen™ biochemical kinase assay protocol. For the detailed description of LanthaScreen™ Eu kinase binding assay condition, please see: https://www.thermofisher.com/us/en/home/industrial/pharma-biopharma/drug-discovery-development/target-and-lead-identification-and-validation/kinasebiology/kinase-activity-assays/lanthascreentm-eu-kinas e-binding-assay/lanthascreen-eu-kinase-binding-assay-validation-table.html.

[2] = molecular target: TGFβR2 (Homo sapiens, UniProt P37173); assay: LanthaScreen Eu kinase binding assay, BMP type II receptor TGFbR2; settings: 10-point titration from 10 μM, 3-fold serial dilution, Life Technologies
Source text: For the detailed description of LanthaScreen™ Eu kinase binding assay condition, please see: https://www.thermofisher.com/us/en/home/industrial/pharma-biopharma/drug-discovery-development/target-and-lead-identification-and-validation/kinasebiology/kinase-activity-assays/lanthascreentm-eu-kinas e-binding-assay/lanthascreen-eu-kinase-binding-assay-validation-table.html.

Chain of TGFβR2 (P37173 23-567): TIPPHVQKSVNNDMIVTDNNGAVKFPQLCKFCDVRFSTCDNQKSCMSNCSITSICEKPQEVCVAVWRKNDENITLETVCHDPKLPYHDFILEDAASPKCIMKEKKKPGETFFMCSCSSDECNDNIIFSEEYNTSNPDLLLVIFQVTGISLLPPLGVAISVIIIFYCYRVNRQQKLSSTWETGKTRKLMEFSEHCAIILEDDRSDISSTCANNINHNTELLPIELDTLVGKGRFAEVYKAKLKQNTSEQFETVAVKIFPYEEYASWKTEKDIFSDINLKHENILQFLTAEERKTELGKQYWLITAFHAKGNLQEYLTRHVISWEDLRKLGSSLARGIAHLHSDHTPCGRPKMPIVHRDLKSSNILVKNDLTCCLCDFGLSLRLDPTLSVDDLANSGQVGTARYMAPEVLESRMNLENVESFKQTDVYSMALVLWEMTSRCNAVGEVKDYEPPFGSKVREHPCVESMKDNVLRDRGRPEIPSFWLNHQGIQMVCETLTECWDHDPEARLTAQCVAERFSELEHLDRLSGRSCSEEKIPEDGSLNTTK

| SMILES | IC50 [1] | IC50 [2] |
| --- | --- | --- |
| Cc1cc(-c2cnn3cc(N4CCC(N5CCN(C)CC5)CC4)cnc23)c2ccccc2n1 [Compound 8] | > 10000 nM | 191 nM |
| c1ccc2c(-c3cnn4cc(-c5ccc(N6CCNCC6)cc5)cnc34)ccnc2c1 [TRND00262637-13] | > 10000 nM | 8.06 nM |
